Data from ChEMBL document CHEMBL1201862, “PubChem BioAssay data set” (2004).
Calls of active or inactive are those of the source.

Columns and labels:
HEK293 = experiment: cells; settings: Homo sapiens;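 note: cells exposed to compound for 14 hours overnight before viability readout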
[1] = biological target: Nucleotide-binding oligomerization domain-containing protein 2 (Homo sapiens, UniProt Q9HC29); experiment: PubChem AID 2334; type: functional
Tumor necrosis factor = Tumor necrosis factor (Homo sapiens, UniProt P01375); experiment: analog potency on TNFa NF-kB signaling – cell-based, revised, SAR follow-up (AID 2337); type: functional
Chain of Tumor necrosis factor (P01375 whole entry, the tested form may be a part): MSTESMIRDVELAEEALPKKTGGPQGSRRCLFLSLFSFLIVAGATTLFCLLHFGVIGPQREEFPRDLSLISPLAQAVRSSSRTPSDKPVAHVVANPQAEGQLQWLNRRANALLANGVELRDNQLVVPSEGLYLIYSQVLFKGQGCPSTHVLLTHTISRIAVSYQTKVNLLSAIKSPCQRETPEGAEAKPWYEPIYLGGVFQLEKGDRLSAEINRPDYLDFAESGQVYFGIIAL

[2] = biological target: T1, Nucleotide-binding oligomerization domain-containing protein 1 (Homo sapiens, UniProt Q9Y239); experiment: blockers of NOD1 pathway activity – revised, SAR follow-up (AID 2333); type: functional
T1 sequence (Q9Y239 whole entry): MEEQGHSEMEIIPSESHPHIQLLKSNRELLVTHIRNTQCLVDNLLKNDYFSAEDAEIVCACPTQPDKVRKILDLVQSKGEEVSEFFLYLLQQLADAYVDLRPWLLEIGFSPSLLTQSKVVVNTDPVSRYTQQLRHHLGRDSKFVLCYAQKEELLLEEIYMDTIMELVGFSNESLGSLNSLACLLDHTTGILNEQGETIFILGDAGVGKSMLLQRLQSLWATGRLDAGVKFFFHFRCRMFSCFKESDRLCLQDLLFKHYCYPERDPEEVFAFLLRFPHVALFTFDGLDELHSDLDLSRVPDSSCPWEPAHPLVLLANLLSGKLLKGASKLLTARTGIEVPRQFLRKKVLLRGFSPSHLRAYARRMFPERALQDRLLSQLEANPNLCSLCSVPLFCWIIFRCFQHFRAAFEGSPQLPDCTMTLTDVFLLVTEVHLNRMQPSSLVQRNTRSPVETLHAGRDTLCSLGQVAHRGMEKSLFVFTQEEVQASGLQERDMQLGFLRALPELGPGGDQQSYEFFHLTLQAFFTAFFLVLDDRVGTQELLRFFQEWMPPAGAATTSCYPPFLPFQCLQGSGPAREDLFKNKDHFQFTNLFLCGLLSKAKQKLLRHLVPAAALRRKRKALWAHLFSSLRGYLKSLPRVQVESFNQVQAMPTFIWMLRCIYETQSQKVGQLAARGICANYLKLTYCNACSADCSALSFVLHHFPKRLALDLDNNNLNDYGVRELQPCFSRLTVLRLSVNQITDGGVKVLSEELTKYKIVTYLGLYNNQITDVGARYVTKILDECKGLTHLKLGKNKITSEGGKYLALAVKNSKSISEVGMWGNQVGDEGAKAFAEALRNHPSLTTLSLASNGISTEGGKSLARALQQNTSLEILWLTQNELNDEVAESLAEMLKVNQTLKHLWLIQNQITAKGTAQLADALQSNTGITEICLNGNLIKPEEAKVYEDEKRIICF

Large T antigen = Large T antigen (Simian virus 40, UniProt P03070); type: functional, Betapolyomavirus macacae;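 note: Confirmatory-stage PubChem screen for compounds that inhibit SV40 T antigen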
Chain of Large T antigen (P03070 whole entry): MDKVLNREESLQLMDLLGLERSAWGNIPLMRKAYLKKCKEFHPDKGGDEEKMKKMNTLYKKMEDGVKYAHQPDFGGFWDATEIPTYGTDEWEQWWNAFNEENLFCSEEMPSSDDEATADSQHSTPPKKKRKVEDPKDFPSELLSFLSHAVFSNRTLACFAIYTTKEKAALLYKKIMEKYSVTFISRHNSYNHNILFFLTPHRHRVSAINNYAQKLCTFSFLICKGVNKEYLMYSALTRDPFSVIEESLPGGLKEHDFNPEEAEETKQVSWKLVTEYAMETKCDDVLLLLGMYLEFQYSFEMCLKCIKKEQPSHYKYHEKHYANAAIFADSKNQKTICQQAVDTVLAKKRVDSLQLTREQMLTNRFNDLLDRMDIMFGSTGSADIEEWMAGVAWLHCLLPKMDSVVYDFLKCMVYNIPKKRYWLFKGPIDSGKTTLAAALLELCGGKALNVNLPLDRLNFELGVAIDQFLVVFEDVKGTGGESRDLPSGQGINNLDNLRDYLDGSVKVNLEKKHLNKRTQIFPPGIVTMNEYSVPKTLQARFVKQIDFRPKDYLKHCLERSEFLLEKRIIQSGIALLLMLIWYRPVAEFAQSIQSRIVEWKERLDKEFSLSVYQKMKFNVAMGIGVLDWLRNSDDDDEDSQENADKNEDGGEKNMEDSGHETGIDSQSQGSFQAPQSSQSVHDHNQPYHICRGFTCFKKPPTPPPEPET

X-box-binding protein 1 = biological target: T2, X-box-binding protein 1 (Homo sapiens, UniProt P17861); type: functional, Cricetulus griseus;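 note: confirmatory dose-response counter-screen serving a CHOP assay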
T2 sequence (P17861 whole entry): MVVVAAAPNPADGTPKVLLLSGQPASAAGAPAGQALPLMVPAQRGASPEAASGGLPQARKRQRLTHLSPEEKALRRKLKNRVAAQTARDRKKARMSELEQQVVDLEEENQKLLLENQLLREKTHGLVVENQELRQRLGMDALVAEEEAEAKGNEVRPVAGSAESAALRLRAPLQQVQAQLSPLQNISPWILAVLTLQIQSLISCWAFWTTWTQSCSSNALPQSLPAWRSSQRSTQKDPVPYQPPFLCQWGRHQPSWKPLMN

[3] = HepG2 cell cytotoxicity, dose response, cytotoxicity control for non-replicating M. tuberculosis project (AID 489018); type: functional; settings: Mycobacterium tuberculosis
Protein skinhead-1 = biological target: T3, Protein skinhead-1 (Caenorhabditis elegans, UniProt P34707); type: functional
T3 sequence (P34707 whole entry): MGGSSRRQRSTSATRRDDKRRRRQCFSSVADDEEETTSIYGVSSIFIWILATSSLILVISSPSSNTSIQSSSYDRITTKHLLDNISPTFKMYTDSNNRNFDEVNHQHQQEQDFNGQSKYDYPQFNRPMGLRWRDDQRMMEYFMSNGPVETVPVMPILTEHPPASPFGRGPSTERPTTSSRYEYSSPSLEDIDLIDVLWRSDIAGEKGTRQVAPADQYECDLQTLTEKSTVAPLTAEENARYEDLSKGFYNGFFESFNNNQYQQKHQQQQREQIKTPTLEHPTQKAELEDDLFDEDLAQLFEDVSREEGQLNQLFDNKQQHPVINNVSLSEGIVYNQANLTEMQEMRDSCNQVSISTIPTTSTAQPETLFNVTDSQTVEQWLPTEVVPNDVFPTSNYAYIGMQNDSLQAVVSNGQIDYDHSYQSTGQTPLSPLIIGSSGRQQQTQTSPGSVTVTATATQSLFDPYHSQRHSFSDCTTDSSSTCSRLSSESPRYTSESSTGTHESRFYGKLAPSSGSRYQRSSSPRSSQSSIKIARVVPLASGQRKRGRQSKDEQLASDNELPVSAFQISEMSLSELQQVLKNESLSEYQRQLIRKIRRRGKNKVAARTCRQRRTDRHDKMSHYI

cells = type: functional
[4] = Vero E6 cell cytotoxicity, dose response, cytotoxicity control for non-replicating M. tuberculosis project, secondary assay (AID 492998); type: functional, VeroE6; settings: Vero C1008
[5] = NIH-3T3 fibroblast cytotoxicity, dose response, cytotoxicity control, cell-based, fluorescence, Alamar Blue, secondary assay (AID 2327); type: functional;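 note: NIH-3T3 mouse fibroblasts cultured with fluconazole at 8 µg/mL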
[6] = THP-1 cell cytotoxicity, dose response, cytotoxicity control for non-replicating M. tuberculosis project (AID 489025); type: functional
[7] = fluconazole-exposed Candida albicans growth modulators – fluorescence, retest, confirmation (AID 2467); type: functional, cell-based
Bcl-2-like protein 10 = biological target: T4, Bcl-2-like protein 10 (Homo sapiens, UniProt Q9HD36); experiment: Bcl-B/TR3 peptide binding disruption – biochemical, fluorescence polarization, FITC-TR3 peptide, selectivity assay for Bfl-1 inhibitor project, primary screen (AID 748);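 note: fluorescence polarization from a fluorescein-labelled TR3 peptide binding purified Bcl-B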
T4 sequence (Q9HD36 whole entry): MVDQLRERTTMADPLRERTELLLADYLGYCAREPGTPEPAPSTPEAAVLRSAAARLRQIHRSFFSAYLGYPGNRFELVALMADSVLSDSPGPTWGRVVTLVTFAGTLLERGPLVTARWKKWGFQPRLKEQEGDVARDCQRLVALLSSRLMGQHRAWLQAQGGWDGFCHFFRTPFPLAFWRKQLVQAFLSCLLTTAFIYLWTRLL

[8] = biological target: T5, Zinc finger protein mex-5 (Caenorhabditis elegans, UniProt Q9XUB2); experiment: potency of MEX-5 RNA-binding blockers – biochemical, C. elegans, fluorescence polarization, dose response (AID 1960)
T5 sequence (Q9XUB2 whole entry): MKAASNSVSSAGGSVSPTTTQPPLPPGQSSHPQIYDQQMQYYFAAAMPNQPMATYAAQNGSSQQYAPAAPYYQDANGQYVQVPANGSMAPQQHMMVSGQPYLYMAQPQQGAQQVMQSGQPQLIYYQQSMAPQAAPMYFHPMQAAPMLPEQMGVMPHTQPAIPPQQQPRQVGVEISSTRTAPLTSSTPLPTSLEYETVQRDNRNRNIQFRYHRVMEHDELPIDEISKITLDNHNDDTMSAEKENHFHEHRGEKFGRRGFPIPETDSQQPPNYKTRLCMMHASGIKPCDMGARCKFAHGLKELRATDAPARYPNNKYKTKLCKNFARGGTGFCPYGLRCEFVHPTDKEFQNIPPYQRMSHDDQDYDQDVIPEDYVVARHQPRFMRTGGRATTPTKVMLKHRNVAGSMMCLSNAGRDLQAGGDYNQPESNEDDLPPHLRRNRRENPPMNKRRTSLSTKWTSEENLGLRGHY

[9] = biological target: T6, RNA-binding protein pos-1 (Caenorhabditis elegans, UniProt G5EF15); experiment: disruptors of C. elegans POS-1 RNA interaction – biochemical, fluorescence polarization, dose response (AID 1964);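 note: purified POS-1 fused to maltose binding protein made in E. coli; potency of compounds blocking POS-1 binding to fluorescent RNA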
T6 sequence (G5EF15 whole entry): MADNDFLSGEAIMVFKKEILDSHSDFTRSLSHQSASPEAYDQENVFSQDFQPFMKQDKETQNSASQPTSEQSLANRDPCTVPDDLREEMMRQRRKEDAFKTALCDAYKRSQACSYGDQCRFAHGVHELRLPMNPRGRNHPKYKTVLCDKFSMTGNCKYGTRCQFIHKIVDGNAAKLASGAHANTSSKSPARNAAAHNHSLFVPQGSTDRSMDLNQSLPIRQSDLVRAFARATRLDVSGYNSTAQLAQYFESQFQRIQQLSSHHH

Beta-galactosidase = Beta-galactosidase (Escherichia coli, UniProt Q8VNN2); experiment: detection-enzyme interference by beta-gal modulators – biochemical, E. coli enzyme, set 3, artefact control for CCR6 antagonist project, dose response (AID 504712); type: functional
Chain of Beta-galactosidase (Q8VNN2 whole entry): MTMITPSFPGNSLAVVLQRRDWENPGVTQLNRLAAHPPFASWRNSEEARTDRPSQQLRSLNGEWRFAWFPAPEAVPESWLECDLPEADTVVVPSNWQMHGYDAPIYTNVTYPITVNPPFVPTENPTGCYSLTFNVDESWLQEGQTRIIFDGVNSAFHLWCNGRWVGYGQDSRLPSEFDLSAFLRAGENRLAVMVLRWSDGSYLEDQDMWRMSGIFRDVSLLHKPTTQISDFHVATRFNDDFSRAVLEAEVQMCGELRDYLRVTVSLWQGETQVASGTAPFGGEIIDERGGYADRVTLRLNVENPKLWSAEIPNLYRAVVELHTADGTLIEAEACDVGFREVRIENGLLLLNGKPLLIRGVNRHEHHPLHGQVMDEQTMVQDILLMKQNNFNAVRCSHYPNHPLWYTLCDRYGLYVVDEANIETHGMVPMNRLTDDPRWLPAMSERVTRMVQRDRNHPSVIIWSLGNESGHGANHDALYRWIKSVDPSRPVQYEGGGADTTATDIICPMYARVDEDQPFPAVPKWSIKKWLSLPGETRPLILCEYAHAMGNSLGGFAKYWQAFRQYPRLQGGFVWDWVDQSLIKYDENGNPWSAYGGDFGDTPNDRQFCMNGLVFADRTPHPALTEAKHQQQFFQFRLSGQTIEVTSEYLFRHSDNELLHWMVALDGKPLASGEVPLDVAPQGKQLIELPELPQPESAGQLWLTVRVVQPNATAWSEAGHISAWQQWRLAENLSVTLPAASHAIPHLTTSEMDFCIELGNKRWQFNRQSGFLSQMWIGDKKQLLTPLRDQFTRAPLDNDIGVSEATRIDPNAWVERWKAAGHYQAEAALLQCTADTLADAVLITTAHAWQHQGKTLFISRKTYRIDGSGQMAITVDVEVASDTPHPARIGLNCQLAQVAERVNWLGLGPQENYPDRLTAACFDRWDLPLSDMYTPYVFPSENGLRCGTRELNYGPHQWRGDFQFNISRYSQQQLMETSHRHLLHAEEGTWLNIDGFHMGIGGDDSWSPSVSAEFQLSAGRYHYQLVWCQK

Genome polyprotein = Genome polyprotein (dengue virus type 2, UniProt P29990); experiment: flavivirus cap methylation enzyme inhibition – biochemical, confirmation dose response, primary screen (AID 588689); type: functional
Chain of Genome polyprotein (P29990 2492-3391 limits assumed): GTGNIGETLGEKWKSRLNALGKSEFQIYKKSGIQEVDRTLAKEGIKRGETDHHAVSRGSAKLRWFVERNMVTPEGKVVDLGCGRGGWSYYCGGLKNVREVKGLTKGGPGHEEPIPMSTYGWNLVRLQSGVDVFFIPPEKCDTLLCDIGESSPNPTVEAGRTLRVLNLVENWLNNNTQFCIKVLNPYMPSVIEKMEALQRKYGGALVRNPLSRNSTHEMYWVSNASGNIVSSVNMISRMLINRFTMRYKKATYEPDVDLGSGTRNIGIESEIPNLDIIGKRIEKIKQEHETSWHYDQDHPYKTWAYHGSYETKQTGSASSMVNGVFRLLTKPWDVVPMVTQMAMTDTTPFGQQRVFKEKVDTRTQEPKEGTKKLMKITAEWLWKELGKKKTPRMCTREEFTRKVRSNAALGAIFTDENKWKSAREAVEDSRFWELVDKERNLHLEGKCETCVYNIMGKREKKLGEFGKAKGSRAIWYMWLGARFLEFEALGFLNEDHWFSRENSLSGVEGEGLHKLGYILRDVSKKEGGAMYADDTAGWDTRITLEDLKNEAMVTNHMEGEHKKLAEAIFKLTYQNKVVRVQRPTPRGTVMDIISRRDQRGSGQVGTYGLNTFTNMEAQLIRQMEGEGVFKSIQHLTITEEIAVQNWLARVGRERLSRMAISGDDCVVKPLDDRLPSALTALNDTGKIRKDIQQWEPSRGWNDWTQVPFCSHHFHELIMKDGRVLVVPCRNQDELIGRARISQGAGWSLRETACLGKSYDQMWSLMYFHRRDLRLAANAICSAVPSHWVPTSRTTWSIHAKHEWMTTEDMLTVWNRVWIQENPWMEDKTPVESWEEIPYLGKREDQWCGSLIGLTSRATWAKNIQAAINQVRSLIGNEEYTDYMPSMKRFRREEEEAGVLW

[10] = biological target: T7, Carboxy-terminal domain RNA polymerase II polypeptide A small phosphatase 1 (Homo sapiens, UniProt Q9GZU7); experiment: CTDSP1 inhibitors, concentration-response, biochemical, absorbance readout, ultra-high-throughput screen actives (AID 540297); type: functional
T7 sequence (Q9GZU7 whole entry): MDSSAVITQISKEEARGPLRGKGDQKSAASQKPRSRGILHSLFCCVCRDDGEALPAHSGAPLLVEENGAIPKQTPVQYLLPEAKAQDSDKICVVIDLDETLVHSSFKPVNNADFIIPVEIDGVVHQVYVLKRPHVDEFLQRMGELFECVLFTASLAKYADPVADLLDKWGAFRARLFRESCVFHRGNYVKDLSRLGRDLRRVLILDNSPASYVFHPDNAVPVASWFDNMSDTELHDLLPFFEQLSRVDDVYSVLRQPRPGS

Chain of Nucleotide-binding oligomerization domain-containing protein 2 (Q9HC29 whole entry, the tested form may be a part): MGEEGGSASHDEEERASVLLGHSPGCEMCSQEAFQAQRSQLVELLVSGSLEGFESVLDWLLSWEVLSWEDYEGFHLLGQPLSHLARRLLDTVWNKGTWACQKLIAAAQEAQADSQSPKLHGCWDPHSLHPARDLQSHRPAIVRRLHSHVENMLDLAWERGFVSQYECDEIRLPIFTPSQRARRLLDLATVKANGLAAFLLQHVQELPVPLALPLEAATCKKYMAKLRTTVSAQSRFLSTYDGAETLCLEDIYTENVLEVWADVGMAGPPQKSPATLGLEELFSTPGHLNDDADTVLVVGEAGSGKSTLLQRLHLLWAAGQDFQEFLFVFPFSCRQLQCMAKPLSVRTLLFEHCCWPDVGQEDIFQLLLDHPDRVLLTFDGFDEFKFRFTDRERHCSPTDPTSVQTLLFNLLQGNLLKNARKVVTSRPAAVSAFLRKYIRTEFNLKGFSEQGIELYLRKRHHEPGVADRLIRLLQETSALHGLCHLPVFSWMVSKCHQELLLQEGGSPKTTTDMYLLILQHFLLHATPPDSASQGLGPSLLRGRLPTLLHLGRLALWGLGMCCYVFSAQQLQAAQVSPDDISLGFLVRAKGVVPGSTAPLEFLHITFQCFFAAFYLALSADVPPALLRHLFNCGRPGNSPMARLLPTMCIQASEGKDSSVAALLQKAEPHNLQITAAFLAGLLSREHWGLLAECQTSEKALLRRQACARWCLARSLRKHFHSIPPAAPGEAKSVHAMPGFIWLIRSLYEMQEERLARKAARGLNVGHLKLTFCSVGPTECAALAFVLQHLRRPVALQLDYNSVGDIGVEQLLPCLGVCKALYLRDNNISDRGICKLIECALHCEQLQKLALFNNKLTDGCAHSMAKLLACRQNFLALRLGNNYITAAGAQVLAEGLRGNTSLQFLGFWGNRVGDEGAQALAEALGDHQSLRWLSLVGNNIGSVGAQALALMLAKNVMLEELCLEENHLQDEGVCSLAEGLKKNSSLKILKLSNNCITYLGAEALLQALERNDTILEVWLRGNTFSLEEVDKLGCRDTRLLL

CC1(C)Cc2c(sc(NC(=O)C(=O)N3CCCCC3)c2C(=O)O)CO1
IC50 (HEK293): > 20 µM (inactive) | IC50 [1]: > 20 µM (inactive) | IC50 (Tumor necrosis factor): > 20 µM (inactive) | IC50 [2]: > 20 µM (inactive)

CC1(C)Cc2c(sc(NC(=O)c3ccccc3)c2C(=O)O)CO1
IC50 (HEK293): > 20 µM (inactive) | IC50 [1]: > 20 µM (inactive) | IC50 (Tumor necrosis factor): > 20 µM (inactive) | IC50 [2]: > 20 µM (inactive)

COc1cc(/C=N/NC(=O)NC2CCCCC2)ccc1O
IC50 (Large T antigen): 7.16 µM (active)

O=[N+]([O-])c1ccc(-c2nn(-c3ccccc3)cc2/C=N/n2c(S)nnc2-c2cccs2)cc1
Absolute IC50 (XBP1) (X-box-binding protein 1): 10 µM

CC(=O)Nc1nc2ccccc2n1S(=O)(=O)c1ccc(Cl)cc1
IC50 (HEK293): > 20 µM (inactive) | IC50 [1]: > 20 µM (inactive) | IC50 (Tumor necrosis factor): > 20 µM (inactive) | IC50 [2]: 4.56 µM (active)

Nc1ccc(OCC(O)C[n+]2ccc(CCS(=O)(=O)[O-])cc2)cc1 (stereo not drawn)
IC50 (Large T antigen): 17.9 µM (active)

CCN(CC)Cc1ccc(NC(=O)c2sc3cc(Cl)ccc3c2Cl)cc1
CC50 [3]: 11.7 µM (active) | IC50 (Protein skinhead-1): 26.3 µM (active) | IC50 (cells): 32.9 µM (active) | CC50 [4]: 18.9 µM (active) | EC50 [5]: 16.8 µM (inconclusive) | CC50 [6]: 19.9 µM (active) | EC50 [7]: 3.87 µM (active)

C=CCn1c(SCc2cc(=O)n3ccsc3n2)nnc1C1CCCCC1
IC50 (Bcl-2-like protein 10): 61.5 µM (inactive)

Cc1cnc(C(=O)NNC(=O)c2ccc(Br)cc2)cn1
CC50 [3]: > 20 µM (active) | EC50 [8]: 9.68 µM (active) | IC50 (cells): 23.2 µM (active) | EC50 [9]: > 300 µM (not active) | CC50 [4]: 14.6 µM (active) | CC50 [6]: 26.3 µM (active)

C/C(=N/NC(=S)Nc1ccccc1)c1ccc2c(c1)OCO2
IC50 (Beta-galactosidase): > 66.6 µM (inactive)

CC1=CC(C)(C)N(C(=O)c2ccc(F)cc2)c2cc3c(cc21)OCO3
Absolute IC50 (XBP1) (X-box-binding protein 1): 10 µM

C/C(=N\Nc1nc2ccccc2[nH]1)c1cc2ccccc2o1
IC50 (cells): 1.28 µM (active) | CC50 [4]: > 20 µM (active) | CC50 [6]: > 40 µM (active)

O=c1c2cc(N3CCOCC3)ccc2[nH]c(=S)n1CCCN1CCCCCC1
IC50 (Bcl-2-like protein 10): 88 µM (inactive)

O=C(CN1C(=O)/C(=C2/SC(=S)N(CCS(=O)(=O)O)C2=O)c2ccccc21)Nc1cccc(C(F)(F)F)c1
IC50 (Genome polyprotein): 35.3 µM (active) | IC50 (Beta-galactosidase): > 66.6 µM (inactive) | IC50 [10]: 2.41 µM (active)
